Measured values: patent USRE40086E1, “Method for treating bacterial infection with novel 7-substituted-9-substituted amino 6-demethyl-6-deoxytetracyclines” (Wyeth Holdings Corporation, priority 1991, dated 2008)
Counter-ions that a name gives are not always drawn. Like-named read-outs stand apart in the source and are kept apart here.

Legend:
[1] = test system: Ps. acruginosa ATCC 27853; experiment: MIC, agar dilution (Table IA); type: cell-based; details: unit assumed
E. coli MC4100 TetB = experiment: MIC, agar dilution (Table IA); type: cell-based; details: unit assumed
[2] = test system: S. aureus UBMS 90-3 (Sensitive); experiment: MIC, agar dilution; type: cell-based; details: S. aureus UBMS 90-3; Table IA; unit assumed
E. faecalis 12201 = experiment: MIC, agar dilution; type: cell-based; details: Enterococcus 12201; Table IA; unit assumed
E. coli J3272 Tet sens. = experiment: MIC, agar dilution (Table IA); type: cell-based; details: unit assumed
E. coli UBMS 89-1 (tetM) = experiment: MIC, agar dilution; type: cell-based; details: E. coli UBMS 89-1 TetM; Table IA; unit assumed
[3] = test system: S. aureus UBMS 88-5 (tetM); experiment: MIC, agar dilution; type: cell-based; details: S. aureus UBMS 88-5 TetM; Table IA; unit assumed
[4] = test system: S. aureus UBMS 88-7 (tetK); experiment: MIC, agar dilution; type: cell-based; details: S. aureus UBMS 88-7 TetK; Table IA; unit assumed
S. aureus ROSE (MP) = experiment: MIC, agar dilution (Table IA); type: cell-based; details: unit assumed
S. aureus SMITH (sens) [5] = experiment: In vivo antibacterial evaluation, acute lethal infection in mice; details: Intraveneous
E. coli BAJ9003 = experiment: MIC, agar dilution (Table IA); type: cell-based
S. aureus NEMC 8769/89-4 = experiment: MIC, agar dilution (Table IA); type: cell-based; details: unit assumed
E. coli PRP1 TetA = experiment: MIC, agar dilution (Table IA); type: cell-based; details: unit assumed
[6] = test system: X. maltophilia NEMC 87210; experiment: MIC, agar dilution (Table IA); type: cell-based; details: unit assumed
E. coli UBMS 90-4 (tetM) = experiment: MIC, agar dilution; type: cell-based; details: E. coli UBMS 90-4 TetM; Table IA; unit assumed
[7] = test system: E. coli UBMS 89-2 (Sensitive); experiment: MIC, agar dilution; type: cell-based; details: E. coli UBMS 89-2 Tet Sens.; Table IA; unit assumed
[8] = test system: S. aureus ATCC 29213 (Sensitive); experiment: MIC, agar dilution; type: cell-based; details: S. aureus ATCC 29213; Table IA; unit assumed
[9] = test system: S. aureus UBMS 88-4 (Sensitive); experiment: MIC, agar dilution; type: cell-based; details: S. aureus UBMS 88-4; Table IA; unit assumed
E. coli J3272 TetD = experiment: MIC, agar dilution (Table IA); type: cell-based; details: unit assumed
S. mariescens FDOR 8733 = experiment: MIC, agar dilution (Table IA); type: cell-based; details: unit assumed
E. faecalis ATCC 29212 = experiment: MIC, agar dilution; type: cell-based; details: E. faecalis ATCC 29212; Table IA; unit assumed
E. coli ATCC 25922 = experiment: MIC, agar dilution; type: cell-based; details: E. coli ATCC 25922; Table IA; unit assumed
[10] = test system: S. aureus IVES 1983 (meth. resistant); experiment: MIC, agar dilution; type: cell-based; details: S. aureus IVES 1983; Table IA; unit assumed
E. coli J2175 = experiment: MIC, agar dilution (Table IA); type: cell-based; details: unit assumed
[11] = test system: S. aureus UBMS 90-2 (tetM); experiment: MIC, agar dilution; type: cell-based; details: S. aureus UBMS 90-2 TetM; Table IA; unit assumed
S. aureus SMITH (sens) [12] = experiment: In vivo antibacterial evaluation, acute lethal infection in mice
Excerpt: In Vivo Antibacterial Evaluation (Table VII)

E. coli #311 (MP) = experiment: MIC, agar dilution (Table IA); type: cell-based; details: unit assumed
[13] = test system: S. aureus Smith (Sensitive); experiment: MIC, agar dilution; type: cell-based; details: S. aureus SMITH (MP); Table IA; unit assumed
[14] = test system: S. aureus IVES 2943 (meth. resistant); experiment: MIC, agar dilution; type: cell-based; details: S. aureus IVES 2943; Table IA; unit assumed
E. coli UBMS 88-1 (tetB) = experiment: MIC, agar dilution; type: cell-based; details: E. coli UBMS 88-1 TetB; Table IA; unit assumed
E. coli J3272 TetC = experiment: MIC, agar dilution (Table IA); type: cell-based; details: unit assumed
[15] = test system: S. haemolyticus AVAH 88-3; experiment: MIC, agar dilution; type: cell-based; details: S. hemolyticus AVHAH 88-3; Table IA; unit assumed
[16] = test system: S. aureus UBMS 90-1 (tetM); experiment: MIC, agar dilution; type: cell-based; details: S. aureus UBMS 90-1 TetM; Table IA; unit assumed
E. coli UBMS 90-5 = experiment: MIC, agar dilution (Table IA); type: cell-based; details: unit assumed

`CN(C)CC(=O)Nc1cc(N(C)C)c2c(c1O)C(=O)C1=C(O)C3(O)C(=O)C(C(N)=O)=C(O)C(N(C)C)C3CC1C2.O=S(=O)(O)O.O=S(=O)(O)O` (stereo not drawn) [JJ, [4S-(4alpha,12aalpha))-4,7-Bis(dimethylamino)-9-([(dimethylamino)acetyl)amino]-1,4,4a,5,5a,6,11,12a-octahydro-3,10,12,12a-tetrahydroxy-1,11-dioxo-2-naphthacenecarboxamide disulfate] showed an Antibacterial activity (MIC) [1] of 8 µg/mL, an Antibacterial activity (MIC) (E. coli MC4100 TetB) of 0.25 µg/mL and an Antibacterial activity (MIC) [2] of 0.12 µg/mL. It also gave an Antibacterial activity (MIC) (E. faecalis 12201) of 0.12 µg/mL, an Antibacterial activity (MIC) (E. coli J3272 Tet sens.) of 0.25 µg/mL and an Antibacterial activity (MIC) (E. coli UBMS 89-1 (tetM)) of 0.25 µg/mL. For the same compound, the Antibacterial activity (MIC) [3] was 0.25 µg/mL, the Antibacterial activity (MIC) [4] was 1 µg/mL and the Antibacterial activity (MIC) (S. aureus ROSE (MP)) was 2 µg/mL. The ED50 (S. aureus SMITH (sens) [5]) was 0.61 mg/kg, the Antibacterial activity (MIC) (E. coli BAJ9003; unit assumed) was 0.03 µg/mL and the Antibacterial activity (MIC) (S. aureus NEMC 8769/89-4) was 0.06 µg/mL. It also gave an Antibacterial activity (MIC) (E. coli PRP1 TetA) of 2 µg/mL, an Antibacterial activity (MIC) [6] of 0.5 µg/mL and an Antibacterial activity (MIC) (E. coli UBMS 90-4 (tetM)) of 0.25 µg/mL. For the same compound, the Antibacterial activity (MIC) [7] was 0.25 µg/mL, the Antibacterial activity (MIC) [8] was 0.03 µg/mL and the Antibacterial activity (MIC) [9] was 0.25 µg/mL. It also gave an Antibacterial activity (MIC) (E. coli J3272 TetD) of 0.12 µg/mL, an Antibacterial activity (MIC) (S. mariescens FDOR 8733) of 4 µg/mL and an Antibacterial activity (MIC) (E. faecalis ATCC 29212) of 0.12 µg/mL. It also gave an Antibacterial activity (MIC) (E. coli ATCC 25922) of 0.25 µg/mL, an Antibacterial activity (MIC) [10] of 2 µg/mL and an Antibacterial activity (MIC) (E. coli J2175) of 0.25 µg/mL. For the same compound, the Antibacterial activity (MIC) [11] was 0.25 µg/mL, the ED50 (S. aureus SMITH (sens) [12]; Oral) was 9.6 mg/kg and the ED50 (S. aureus SMITH (sens) [12]; Subcutaneous) was 0.66 mg/kg. The Antibacterial activity (MIC) (E. coli #311 (MP)) was 0.25 µg/mL, the Antibacterial activity (MIC) [13] was 0.12 µg/mL and the Antibacterial activity (MIC) [14] was 2 µg/mL. For the same compound, the Antibacterial activity (MIC) (E. coli UBMS 88-1 (tetB)) was 0.25 µg/mL, the Antibacterial activity (MIC) (E. coli J3272 TetC) was 1 µg/mL and the Antibacterial activity (MIC) [15] was 0.25 µg/mL. The Antibacterial activity (MIC) [16] was 0.25 µg/mL and the Antibacterial activity (MIC) (E. coli UBMS 90-5) was 0.25 µg/mL.
Work on `CCCCNCC(=O)Nc1cc(N(C)C)c2c(c1O)C(=O)C1=C(O)C3(O)C(=O)C(C(N)=O)=C(O)C(N(C)C)C3CC1C2.Cl.Cl` (stereo not drawn) [PP, [4S-(4alpha,12aalpha)]-4,7-Bis(dimethylamino)-9-[[(butylamino)acetyl]amino)-1,4,4a,5,5a,6,11,12a-octahydro-3,10,12,12a-tetrahydroxy-1,11-dioxo-2-naphthacenecarboxamide dihydrochloride] yielded an Antibacterial activity (MIC) [1] of 16 µg/mL, an Antibacterial activity (MIC) (E. coli MC4100 TetB) of 0.5 µg/mL and an Antibacterial activity (MIC) [2] of 0.25 µg/mL. For the same compound, the Antibacterial activity (MIC) (E. faecalis 12201) was 0.12 µg/mL, the Antibacterial activity (MIC) (E. coli J3272 Tet sens.) was 0.5 µg/mL and the Antibacterial activity (MIC) (E. coli UBMS 89-1 (tetM)) was 0.25 µg/mL. For the same compound, the Antibacterial activity (MIC) [3] was 0.5 µg/mL, the Antibacterial activity (MIC) [4] was 2 µg/mL and the Antibacterial activity (MIC) (S. aureus ROSE (MP)) was 2 µg/mL. The ED50 (S. aureus SMITH (sens) [5]) was 1 to 2 mg/kg, the Antibacterial activity (MIC) (E. coli BAJ9003; unit assumed) was 0.12 µg/mL and the Antibacterial activity (MIC) (S. aureus NEMC 8769/89-4) was 0.12 µg/mL. It also gave an Antibacterial activity (MIC) (E. coli PRP1 TetA) of 1 µg/mL, an Antibacterial activity (MIC) [6] of 0.5 µg/mL and an Antibacterial activity (MIC) (E. coli UBMS 90-4 (tetM)) of 0.25 µg/mL. The Antibacterial activity (MIC) [7] was 0.5 µg/mL, the Antibacterial activity (MIC) [8] was 0.25 µg/mL and the Antibacterial activity (MIC) [9] was 0.25 µg/mL. The Antibacterial activity (MIC) (E. coli J3272 TetD) was 0.25 µg/mL, the Antibacterial activity (MIC) (S. mariescens FDOR 8733) was 2 µg/mL and the Antibacterial activity (MIC) (E. faecalis ATCC 29212) was 0.12 µg/mL. For the same compound, the Antibacterial activity (MIC) (E. coli ATCC 25922) was 0.25 µg/mL, the Antibacterial activity (MIC) [10] was 2 µg/mL and the Antibacterial activity (MIC) (E. coli J2175) was 0.25 µg/mL. The Antibacterial activity (MIC) [11] was 0.5 µg/mL, the ED50 (S. aureus SMITH (sens) [12]; Oral) was greater than 16 mg/kg and the Antibacterial activity (MIC) (E. coli #311 (MP)) was 0.25 µg/mL. It also gave an Antibacterial activity (MIC) [13] of 0.12 µg/mL, an Antibacterial activity (MIC) [14] of 2 µg/mL and an Antibacterial activity (MIC) (E. coli UBMS 88-1 (tetB)) of 0.5 µg/mL. The Antibacterial activity (MIC) (E. coli J3272 TetC) was 0.5 µg/mL, the Antibacterial activity (MIC) [15] was 0.25 µg/mL and the Antibacterial activity (MIC) [16] was 0.5 µg/mL. The Antibacterial activity (MIC) (E. coli UBMS 90-5) was 0.5 µg/mL.
Compound `CN(C)c1cc(NC(=O)CN2CCCC2)c(O)c2c1CC1CC3[C@H](N(C)C)C(O)=C(C(N)=O)C(=O)[C@@]3(O)C(O)=C1C2=O` (stereo partly drawn) [SS, [7S-(7alpha,10aalpha)]-N-[9-(Aminocarbonyl)-4,7-bis(dimethylamino)-5,5a,6,6a,7,10,10a,12-octahydro-1,8,10a,11-tetrahydroxy-10,12-dioxo-2-naphthacenyl]-1-pyrrolidineacetamide dihydrochloride] has an Antibacterial activity (MIC) [1] of 16 µg/mL, an Antibacterial activity (MIC) (E. coli MC4100 TetB) of 0.25 µg/mL and an Antibacterial activity (MIC) [2] of 0.12 µg/mL. The Antibacterial activity (MIC) (E. faecalis 12201) was 0.12 µg/mL, the Antibacterial activity (MIC) (E. coli J3272 Tet sens.) was 0.25 µg/mL and the Antibacterial activity (MIC) (E. coli UBMS 89-1 (tetM)) was 0.12 µg/mL. The Antibacterial activity (MIC) [4] was 0.5 µg/mL, the Antibacterial activity (MIC) (S. aureus ROSE (MP)) was 1 µg/mL and the ED50 (S. aureus SMITH (sens) [5]) was 1 to 2 mg/kg. For the same compound, the “Antibacterial activity (MIC)” value (E. coli BAJ9003) was “≦0.015”, the Antibacterial activity (MIC) (S. aureus NEMC 8769/89-4) was 0.03 µg/mL and the Antibacterial activity (MIC) (E. coli PRP1 TetA) was 0.5 µg/mL. It also gave an Antibacterial activity (MIC) [6] of 0.5 µg/mL, an Antibacterial activity (MIC) (E. coli UBMS 90-4 (tetM)) of 0.25 µg/mL and an Antibacterial activity (MIC) [7] of 0.25 µg/mL. It also gave an Antibacterial activity (MIC) [8] of 0.12 µg/mL, an Antibacterial activity (MIC) [9] of 0.12 µg/mL and an Antibacterial activity (MIC) (E. coli J3272 TetD) of 0.12 µg/mL. It also gave an Antibacterial activity (MIC) (S. mariescens FDOR 8733) of 2 µg/mL, an Antibacterial activity (MIC) (E. faecalis ATCC 29212) of 0.12 µg/mL and an Antibacterial activity (MIC) (E. coli ATCC 25922) of 0.25 µg/mL. The Antibacterial activity (MIC) [10] was 0.5 µg/mL, the Antibacterial activity (MIC) (E. coli J2175) was 0.25 µg/mL and the Antibacterial activity (MIC) [11] was 0.12 µg/mL. The ED50 (S. aureus SMITH (sens) [12]; Oral) was 8 to 16 mg/kg, the Antibacterial activity (MIC) (E. coli #311 (MP)) was 0.12 µg/mL and the Antibacterial activity (MIC) [13] was 0.12 µg/mL. It also gave an Antibacterial activity (MIC) [14] of 1 µg/mL, an Antibacterial activity (MIC) (E. coli UBMS 88-1 (tetB)) of 0.25 µg/mL and an Antibacterial activity (MIC) (E. coli J3272 TetC) of 0.25 µg/mL. The Antibacterial activity (MIC) [15] was 0.25 µg/mL, the Antibacterial activity (MIC) [16] was 0.12 µg/mL and the Antibacterial activity (MIC) (E. coli UBMS 90-5) was 0.25 µg/mL.
